The test has as its system serum lipids and serum lipid hydroperoxide. Briefly: Pharmacological test method A for anti-hyperlipidemic activity (serum lipids, 2 weeks feeding). In kind it is in vivo, male Wistar strain rats. Particulars: for AI [(TC - HDL-C)/(HDL-C)] / HDL-C in serum / LPO in serum / PL in serum / TC in serum / TG in serum: 1% in hyperlipidemic diet, 2 weeks; for AI % of diff. / AI Diff. / HDL-C % of diff. / HDL-C Diff. / LPO % of diff. / LPO Diff. / PL % of diff. / PL Diff. / TC % of diff. / TC Diff. / TG % of diff. / TG Diff.: versus control group. In outline: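 Serum TC, HDL-C (heparin precipitation), PL, TG and LPO measured by colorimetric kits, largely at 500 nm, from abdominal aorta blood after 16 h fasting. Rats (male Wistar, 10/group) ate a cholesterol/cholic acid diet 10 g/day for 2 weeks, supplemented with 1% each of three cycloartane triterpenoids.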

This note sets out measurements from patent US4748161A, “Triterpenyl esters of organic acids and hypolipidemic agents composed of them” (Amano Pharmaceutical Co., Ltd., priority 1984, dated 1988).

Each structure is given as a SMILES string.

For `CC(C)=C(C)CCC(C)C1CCC2(C)C3CCC4C(C)(C)C(OC(=O)c5ccccc5O)CCC45CC35CCC12C` (stereo not drawn) [Example 41, cyclobranyl-o-hydroxybenzoate], the “AI [(TC - HDL-C)/(HDL-C)]” value came to 0.890, the HDL-C in serum was 92.9 mg/dL, the LPO in serum came to 2.01 nmol/mL and the PL in serum came to 156.7 mg/dL. Also, the TC in serum came to 175.6 mg/dL, the TG in serum came out at 41.5 mg/dL, the “AI % of diff.” value is -47.1% and the “AI Diff.” value is given as -0.794. Moreover, the “HDL-C % of diff.” value is “+14.8%”, the “HDL-C Diff.” value is reported as “+12.0 mg/dl”, the “LPO % of diff.” value is reported as -13.0% and the “LPO Diff.” value is -0.30 nmol/mL. In addition, the “PL % of diff.” value was -12.8%, the “PL Diff.” value is -23.0 mg/dL, the “TC % of diff.” value is 19.1% and the “TC Diff.” value is -41.5 mg/dL. The “TG % of diff.” value is reported as -3.0% and the “TG Diff.” value is -1.3 mg/dL.
On to `C=C(CCC(C)C1CCC2(C)C3CCC4C(C)(C)C(OC(=O)C=Cc5ccc(OC(C)=O)c(OCC)c5)CCC45CC35CCC12C)C(C)C` (stereo not drawn) [Example 72, 24-methylenecycloartanyl-4-acetoxy-3-ethoxycinnamate], for which the “AI [(TC - HDL-C)/(HDL-C)]” value is listed as 1.091, the HDL-C in serum came out at 89.2 mg/dL, the LPO in serum is 2.07 nmol/mL and the PL in serum was 160.3 mg/dL. For the same compound, the TC in serum was 186.5 mg/dL, the TG in serum amounted to 41.8 mg/dL, the “AI % of diff.” value is listed as -35.2% and the “AI Diff.” value is listed as -0.593. Moreover, the “HDL-C % of diff.” value is on record as “+10.2%”, the “HDL-C Diff.” value is “+8.3 mg/dl”, the “LPO % of diff.” value is on record as -10.4% and the “LPO Diff.” value is -0.24 nmol/mL. Besides, the “PL % of diff.” value is listed as -10.8%, the “PL Diff.” value was -19.4 mg/dL, the “TC % of diff.” value is listed as -14.1% and the “TC Diff.” value was -30.6 mg/dL. The “TG % of diff.” value is given as -2.4% and the “TG Diff.” value was -1.0 mg/dL.
On to `CC(C)=CCCC(C)C1CCC2(C)C3CCC4C(C)(C)C(OC(=O)c5ccccc5O)CCC45CC35CCC12C` (stereo not drawn) [Example 8, cycloartenyl-o-hydroxybenzoate], for which the “AI [(TC - HDL-C)/(HDL-C)]” value worked out at 0.759, the HDL-C in serum was 101.1 mg/dL, the LPO in serum worked out at 2.01 nmol/mL and the PL in serum is 148.8 mg/dL. Moreover, the TC in serum was determined as 177.8 mg/dL, the TG in serum was found to be 41.3 mg/dL, the “AI % of diff.” value was -54.9% and the “AI Diff.” value is recorded as -0.925. Moreover, the “HDL-C % of diff.” value is “+25.0%”, the “HDL-C Diff.” value is “+20.2 mg/dl”, the “LPO % of diff.” value is -13.0% and the “LPO Diff.” value was -0.30 nmol/mL. In addition, the “PL % of diff.” value is given as -17.2%, the “PL Diff.” value is -30.9 mg/dL, the “TC % of diff.” value was -18.1% and the “TC Diff.” value was -39.3 mg/dL. Also, the “TG % of diff.” value was -3.5% and the “TG Diff.” value is -1.5 mg/dL.
In the case of `CC(C)=CCCC(C)C1CCC2(C)C3CCC4C(C)(C)C(OC(=O)C=Cc5ccc([N+](=O)[O-])cc5)CCC45CC35CCC12C` (stereo not drawn) [Example 101, cycloartenyl ester of p-nitro cinnamic acid], the “AI [(TC - HDL-C)/(HDL-C)]” value was 3.668, the HDL-C in serum was 46.4 mg/dL, the LPO in serum is 2.12 nmol/mL and the PL in serum amounted to 150.7 mg/dL. Further, the TC in serum came out at 216.6 mg/dL, the TG in serum is 28.2 mg/dL, the “AI % of diff.” value was -53.2% and the “AI Diff.” value is recorded as -4.172. Besides, the “HDL-C % of diff.” value is given as “+25.7%”, the “HDL-C Diff.” value is given as “+9.5 mg/dl”, the “LPO % of diff.” value was -24.3% and the “LPO Diff.” value is -0.68 nmol/mL. In addition, the “PL % of diff.” value was -9.0%, the “PL Diff.” value was -14.9 mg/dL, the “TC % of diff.” value was -33.6% and the “TC Diff.” value was -109.6 mg/dL. The “TG % of diff.” value is recorded as -17.1% and the “TG Diff.” value was -5.8 mg/dL.
Consider `COc1ccc(C(=O)OC2CCC34CC35CCC3(C)C(C(C)CCC=C(C)C)CCC3(C)C5CCC4C2(C)C)cc1` (stereo not drawn) [Example 14, cycloartenyl-p-methoxybenzoate], for which the “AI [(TC - HDL-C)/(HDL-C)]” value is on record as 1.275, the HDL-C in serum amounted to 64.1 mg/dL, the LPO in serum was determined as 1.81 nmol/mL and the PL in serum is 120.9 mg/dL. Also, the TC in serum turned out to be 145.8 mg/dL, the TG in serum turned out to be 25.4 mg/dL, the “AI % of diff.” value was -27.8% and the “AI Diff.” value was -0.492. Moreover, the “HDL-C % of diff.” value was “+6.5%”, the “HDL-C Diff.” value is “+3.9 mg/dl”, the “LPO % of diff.” value is -28.5% and the “LPO Diff.” value is -0.72 nmol/mL. Besides, the “PL % of diff.” value was -11.6%, the “PL Diff.” value was -15.8 mg/dL, the “TC % of diff.” value is given as -12.5% and the “TC Diff.” value was -20.8 mg/dL. Further, the “TG % of diff.” value is -6.6% and the “TG Diff.” value is -1.8 mg/dL.
Take `C=C(CCC(C)C1CCC2(C)C3CCC4C(C)(C)C(OC(=O)C=Cc5ccc(O)c(OC)c5)CCC45CC35CCC12C)C(C)C` (stereo not drawn) [Example 100-3, 24-methylenecycloartanyl-4-hydroxy-3-methoxycinnamate]: the “AI [(TC - HDL-C)/(HDL-C)]” value was determined as 1.393, the HDL-C in serum worked out at 73.8 mg/dL, the LPO in serum is 1.89 nmol/mL and the PL in serum was determined as 152.9 mg/dL. The TC in serum was determined as 176.6 mg/dL, the TG in serum was 35.1 mg/dL, the “AI % of diff.” value is -8.2% and the “AI Diff.” value is -0.124. Also, the “HDL-C % of diff.” value is on record as -9.4%, the “HDL-C Diff.” value is -7.7 mg/dL, the “LPO % of diff.” value was -16.7% and the “LPO Diff.” value is -0.38 nmol/mL. Also, the “PL % of diff.” value was -11.9%, the “PL Diff.” value is -20.7 mg/dL, the “TC % of diff.” value is recorded as -13.9% and the “TC Diff.” value was -28.5 mg/dL. The “TG % of diff.” value is recorded as “+2.3%” and the “TG Diff.” value is on record as “+0.8 mg/dl”.
For `CC(C)=CCCC(C)C1CCC2(C)C3CCC4C(C)(C)C(OC(=O)c5ccc(O)cc5)CCC45CC35CCC12C` (stereo not drawn) [Example 10, cycloartenyl-p-hydroxybenzoate], the “AI [(TC - HDL-C)/(HDL-C)]” value is given as 1.543, the HDL-C in serum came out at 57.6 mg/dL, the LPO in serum amounted to 1.73 nmol/mL and the PL in serum stood at 123.3 mg/dL. Further, the TC in serum was determined as 146.5 mg/dL, the TG in serum was 27.3 mg/dL, the “AI % of diff.” value is recorded as -12.7% and the “AI Diff.” value is on record as -0.224. Moreover, the “HDL-C % of diff.” value was -4.3%, the “HDL-C Diff.” value is -2.6 mg/dL, the “LPO % of diff.” value is -31.6% and the “LPO Diff.” value was -0.80 nmol/mL. Further, the “PL % of diff.” value is -9.8%, the “PL Diff.” value was -13.4 mg/dL, the “TC % of diff.” value was -12.1% and the “TC Diff.” value was -20.1 mg/dL. For the same compound, the “TG % of diff.” value is on record as “+0.4%” and the “TG Diff.” value was “+0.1 mg/dl”.
Consider `CCCCC/C=C\C/C=C\CCCCCCCC(=O)OC1CCC23CC24CCC2(C)C(C(C)CCC(C)=C(C)C)CCC2(C)C4CCC3C1(C)C` (stereo not drawn) [Example 51, cyclobranyllinolate], for which the “AI [(TC - HDL-C)/(HDL-C)]” value is recorded as 0.623, the HDL-C in serum was 96.4 mg/dL, the LPO in serum is 1.69 nmol/mL and the PL in serum turned out to be 146.0 mg/dL. The TC in serum was determined as 156.5 mg/dL, the TG in serum is 34.7 mg/dL, the “AI % of diff.” value was -49.0% and the “AI Diff.” value is given as -0.599. Further, the “HDL-C % of diff.” value is “+11.5%”, the “HDL-C Diff.” value is “+9.9 mg/dl”, the “LPO % of diff.” value is given as -24.4% and the “LPO Diff.” value was -0.55 nmol/mL. The “PL % of diff.” value was -15.4%, the “PL Diff.” value was -26.6 mg/dL, the “TC % of diff.” value is listed as -18.6% and the “TC Diff.” value is -35.7 mg/dL. For the same compound, the “TG % of diff.” value was -4.3% and the “TG Diff.” value was -1.6 mg/dL.
Turning to `CC(C)=CCCC(C)C1CCC2(C)C3CCC4C(C)(C)C(OC(=O)c5cccc(N)c5)CCC45CC35CCC12C` (stereo not drawn) [Example 23, cycloartenyl-m-aminobenzoate], the “AI [(TC - HDL-C)/(HDL-C)]” value is 1.506, the HDL-C in serum was 58.9 mg/dL, the LPO in serum stood at 2.06 nmol/mL and the PL in serum was 133.1 mg/dL. Moreover, the TC in serum is 147.6 mg/dL, the TG in serum is 20.2 mg/dL, the “AI % of diff.” value was -18.5% and the “AI Diff.” value is reported as -0.341. The “HDL-C % of diff.” value is listed as “+0.3%”, the “HDL-C Diff.” value is recorded as “+0.2 mg/dl”, the “LPO % of diff.” value is -12.0% and the “LPO Diff.” value is -0.28 nmol/mL. Moreover, the “PL % of diff.” value is -10.3%, the “PL Diff.” value is -15.3 mg/dL, the “TC % of diff.” value was -11.7% and the “TC Diff.” value was -19.5 mg/dL. Besides, the “TG % of diff.” value is -18.5% and the “TG Diff.” value is -4.6 mg/dL.
